# Data as given in ChEMBL document CHEMBL5729675, “Sulfonamide compound or salt thereof” (2023).
# Biological target: Ribonucleotide reductase (Homo sapiens, UniProt P23921+Q7LG56)
# Assay: Human RNR Inhibition Effect: The inhibitory activity against the ribonucleotide reduction reaction (hereinafter referred to as RNR reaction) of the test compound was determined by measuring the formation of deoxycytidine diphosphate (hereinafter referred to as dCDP) from cytidine diphosphate (hereinafter referred to as CDP) by the following method.Human M1 subunit and human M2 subunit (mutant …
# Chain of Ribonucleotide reductase (P23921 whole entry, looked up): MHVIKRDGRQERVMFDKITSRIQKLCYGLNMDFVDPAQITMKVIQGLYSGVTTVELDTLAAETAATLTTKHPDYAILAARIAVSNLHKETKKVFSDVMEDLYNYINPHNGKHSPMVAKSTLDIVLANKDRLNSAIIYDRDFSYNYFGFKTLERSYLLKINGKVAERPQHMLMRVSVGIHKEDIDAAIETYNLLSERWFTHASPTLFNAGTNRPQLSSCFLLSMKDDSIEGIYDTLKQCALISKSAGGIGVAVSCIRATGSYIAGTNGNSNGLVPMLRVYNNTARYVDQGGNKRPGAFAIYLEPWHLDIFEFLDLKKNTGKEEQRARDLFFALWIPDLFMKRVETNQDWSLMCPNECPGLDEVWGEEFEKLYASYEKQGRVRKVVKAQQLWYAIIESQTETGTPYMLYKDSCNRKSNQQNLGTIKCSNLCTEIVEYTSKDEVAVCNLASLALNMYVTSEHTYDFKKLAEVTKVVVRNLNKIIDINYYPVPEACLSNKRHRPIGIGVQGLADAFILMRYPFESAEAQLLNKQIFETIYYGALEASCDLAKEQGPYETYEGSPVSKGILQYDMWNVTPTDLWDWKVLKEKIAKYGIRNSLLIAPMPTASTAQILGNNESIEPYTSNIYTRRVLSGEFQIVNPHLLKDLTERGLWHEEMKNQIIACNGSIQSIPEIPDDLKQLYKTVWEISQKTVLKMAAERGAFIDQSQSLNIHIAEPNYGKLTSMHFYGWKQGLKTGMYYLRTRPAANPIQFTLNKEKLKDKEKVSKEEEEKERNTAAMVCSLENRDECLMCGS
# Chain of Ribonucleotide reductase (Q7LG56 whole entry, looked up): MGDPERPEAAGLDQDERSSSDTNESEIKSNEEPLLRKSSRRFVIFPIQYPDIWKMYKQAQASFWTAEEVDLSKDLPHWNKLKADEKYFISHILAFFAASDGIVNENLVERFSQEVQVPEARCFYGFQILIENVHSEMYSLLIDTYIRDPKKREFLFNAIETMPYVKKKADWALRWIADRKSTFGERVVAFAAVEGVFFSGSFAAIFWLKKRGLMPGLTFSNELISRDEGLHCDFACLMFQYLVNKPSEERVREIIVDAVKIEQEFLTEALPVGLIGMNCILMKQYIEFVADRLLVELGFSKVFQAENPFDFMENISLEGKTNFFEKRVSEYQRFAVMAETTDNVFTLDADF
row,IC50 [nM],Compound
1,360,Cc1ccc(F)c([C@@H](C)[C@H](NS(=O)(=O)c2ccc3c(c2)C(C)(O)CCC3)c2n[nH]c(=O)o2)c1C (some centres undefined)
2,400,CC(O)c1nc(S(=O)(=O)N[C@H](c2n[nH]c(=O)o2)[C@H](C)c2cccc3c2CCC3)ccc1Cl (some centres undefined)
3,320,Cc1ccc(F)c([C@@H](C)[C@H](NS(=O)(=O)c2ccc3c(c2)CCCO3)c2n[nH]c(=O)o2)c1C
4,990,Cc1ccc(F)c([C@@H](C)[C@H](NS(=O)(=O)c2ncc(Br)cc2C(=O)O)c2n[nH]c(=O)o2)c1C
5,230,Cc1cccc2cccc([C@@H](C)[C@H](NS(=O)(=O)c3ccc(Cl)c4c3OCCC4O)c3n[nH]c(=O)o3)c12 (some centres undefined)
6,90,Cc1ccc(F)c([C@@H](C)[C@H](NS(=O)(=O)c2ccc(Cl)c(C(C)(C)O)n2)c2n[nH]c(=O)o2)c1C
7,410,Cc1ccc(F)c([C@@H](C)[C@H](NS(=O)(=O)c2ccc3[nH]ncc3c2)c2n[nH]c(=O)o2)c1C
8,190,Cc1ccc(F)c([C@@H](C)[C@H](NS(=O)(=O)c2ccc(Cl)c(C(=O)O)n2)c2n[nH]c(=O)o2)c1C
9,440,Cc1ccc(F)c([C@@H](C)[C@H](NS(=O)(=O)c2ccc(Cl)cc2OCC(F)F)c2n[nH]c(=O)o2)c1C
10,170,CC(O)c1c(Cl)ccc(S(=O)(=O)N[C@H](c2n[nH]c(=O)o2)[C@H](C)c2cccc3c2CCC3)c1Cl (some centres undefined)
11,330,Cc1ccc(F)c([C@@H](C)[C@H](NS(=O)(=O)c2cccc3c2OCCO3)c2n[nH]c(=O)o2)c1C
12,660,Cc1ccc(F)c([C@@H](C)[C@H](NS(=O)(=O)c2ccc3[nH]nnc3c2)c2n[nH]c(=O)o2)c1C
13,40,Cc1ccc(F)c([C@@H](C)[C@H](NS(=O)(=O)c2ncc(Cl)cc2C(N)=O)c2n[nH]c(=O)o2)c1C
14,130,Cc1ccc(F)c([C@@H](C)[C@H](NS(=O)(=O)c2ccc(Cl)c(C(=O)N3CCC4(COC4)C3)n2)c2n[nH]c(=O)o2)c1C
15,550,C[C@H](c1cccc2c1CCC2)[C@H](NS(=O)(=O)c1ccc(F)c(C(C)(C)O)c1F)c1n[nH]c(=O)o1
16,350,Cc1ccc(F)c([C@@H](C)[C@H](NS(=O)(=O)c2ccc3c(c2)C(=O)CCC3)c2n[nH]c(=O)o2)c1C
17,640,C[C@H](c1cccc2c1CCC2)[C@H](NS(=O)(=O)c1ccc(Br)c(C(C)(C)O)c1)c1n[nH]c(=O)o1
18,830,Cc1ccc(F)c([C@@H](C)[C@H](NS(=O)(=O)c2ccc3[nH]c(=O)[nH]c3c2)c2n[nH]c(=O)o2)c1C
19,410,Cc1ccc(S(=O)(=O)N[C@H](c2n[nH]c(=O)o2)[C@H](C)c2c(F)ccc(C)c2C)cc1
20,270,Cc1ccc(F)c([C@@H](C)[C@H](NS(=O)(=O)c2c(F)cc(Cl)cc2C(=O)O)c2n[nH]c(=O)o2)c1C
21,500,Cc1ccc(F)c([C@@H](C)[C@H](NS(=O)(=O)c2ccc(Cl)cc2C(=O)N(C)C)c2n[nH]c(=O)o2)c1C
22,740,Cc1ccc(F)c([C@@H](C)[C@H](NS(=O)(=O)c2ccc3c(c2)CC(=O)N3)c2n[nH]c(=O)o2)c1C
23,380,Cc1ccc(F)c([C@@H](C)[C@H](NS(=O)(=O)c2ccc(Cl)cc2C(C)O)c2n[nH]c(=O)o2)c1C (some centres undefined)
24,160,Cc1ccc(F)c([C@@H](C)[C@H](NS(=O)(=O)c2ccc(F)c3c2OCCC3=O)c2n[nH]c(=O)o2)c1C
25,90,Cc1ccc(F)c([C@@H](C)[C@H](NS(=O)(=O)c2ccc(F)c(C(C)(C)O)c2F)c2n[nH]c(=O)o2)c1C

row,IC50 [nM],Compound
1,60,Cc1ccc(F)c([C@@H](C)[C@H](NS(=O)(=O)c2cc(C(C)(C)O)c(Cl)cc2C(N)=O)c2n[nH]c(=O)o2)c1C
2,80,CC(=O)OC1(C)CCOc2c(S(=O)(=O)N[C@H](c3n[nH]c(=O)o3)[C@H](C)c3c(F)ccc(Br)c3C)ccc(Cl)c21 (some centres undefined)
3,910,Cc1ccc(F)c([C@@H](C)[C@H](NS(=O)(=O)c2ccc(Cl)c3c2C(O)CCC3)c2n[nH]c(=O)o2)c1C (some centres undefined)
4,110,Cc1ccc(F)c([C@@H](C)[C@H](NS(=O)(=O)c2ccc(Cl)c3cccnc23)c2n[nH]c(=O)o2)c1C
5,820,Cc1ccc(F)c([C@@H](C)[C@H](NS(=O)(=O)c2ccc3[nH]c(=O)c(=O)[nH]c3c2)c2n[nH]c(=O)o2)c1C
6,200,COc1c(S(=O)(=O)N[C@H](c2n[nH]c(=O)o2)[C@H](C)c2c(F)ccc(C)c2C)ncc(Cl)c1C(C)O (some centres undefined)
7,130,Cc1ccc(F)c([C@@H](C)[C@H](NS(=O)(=O)c2ccc3c(c2)OCCO3)c2n[nH]c(=O)o2)c1C
8,210,CC(=O)OC(C)c1nc(S(=O)(=O)N[C@H](c2n[nH]c(=O)o2)[C@H](C)c2cccc3c2CCC3)ccc1Cl (some centres undefined)
9,120,Cc1ccc(F)c([C@@H](C)[C@H](NS(=O)(=O)c2cccc3c2OCCC3(O)C(F)(F)F)c2n[nH]c(=O)o2)c1C (some centres undefined)
10,90,Cc1c(Br)ccc(F)c1[C@@H](C)[C@H](NS(=O)(=O)c1ccc(Cl)c2c1OCCC2=O)c1n[nH]c(=O)o1
11,450,COC(=O)c1cc(Br)cnc1S(=O)(=O)N[C@H](c1n[nH]c(=O)o1)[C@H](C)c1c(F)ccc(C)c1C
12,280,Cc1ccc(F)c([C@@H](C)[C@H](NS(=O)(=O)c2ccc(Cl)c(-c3nnn[nH]3)c2)c2n[nH]c(=O)o2)c1C
13,110,COc1c(S(=O)(=O)N[C@H](c2n[nH]c(=O)o2)[C@H](C)c2c(F)ccc(C)c2C)ccc(Cl)c1C(C)(C)O
14,340,COC(=O)c1cc(Cl)cnc1S(=O)(=O)N[C@H](c1n[nH]c(=O)o1)[C@H](C)c1c(F)ccc(C)c1C
15,410,Cc1ccc(F)c([C@@H](C)[C@H](NS(=O)(=O)c2ccc(Cl)cc2C(=O)N2CCC2)c2n[nH]c(=O)o2)c1C
16,440,C[C@H](c1cccc2c1CCC2)[C@H](NS(=O)(=O)c1ccc(Cl)c(C(C)(C)O)n1)c1n[nH]c(=O)o1
17,250,CNC(=O)c1cc(Br)cnc1S(=O)(=O)N[C@H](c1n[nH]c(=O)o1)[C@H](C)c1c(F)ccc(C)c1C
18,180,COc1c(S(=O)(=O)N[C@H](c2n[nH]c(=O)o2)[C@H](C)c2cccc(C)c2C)ccc(Cl)c1C(C)O (some centres undefined)
19,150,CCc1ccc(F)c([C@@H](C)[C@H](NS(=O)(=O)c2ccc(Cl)c(C(C)O)c2OC)c2n[nH]c(=O)o2)c1C (some centres undefined)
20,100,CC(=O)NC1CCOc2c(S(=O)(=O)N[C@H](c3n[nH]c(=O)o3)[C@H](C)c3c(F)ccc(C)c3C)ccc(Cl)c21 (some centres undefined)
21,810,Cc1ccc(F)c([C@@H](C)[C@H](NS(=O)(=O)c2ccc(Cl)c(S(N)(=O)=O)c2)c2n[nH]c(=O)o2)c1C
22,790,Cc1ccc(F)c([C@@H](C)[C@H](NS(=O)(=O)c2cc3c(cc2C(=O)O)OCCO3)c2n[nH]c(=O)o2)c1C
23,270,CC(=O)c1cc(Cl)ccc1S(=O)(=O)N[C@H](c1n[nH]c(=O)o1)[C@H](C)c1c(F)ccc(C)c1C
24,170,COC(=O)c1c(F)ccc(S(=O)(=O)N[C@H](c2n[nH]c(=O)o2)[C@H](C)c2c(F)ccc(C)c2C)c1F
25,710,Cc1ccc(F)c([C@@H](C)[C@H](NS(=O)(=O)c2cccc3[nH]ccc23)c2n[nH]c(=O)o2)c1C

row,IC50 [nM],Compound
1,430,COc1c(S(=O)(=O)N[C@H](c2n[nH]c(=O)o2)[C@H](C)c2c(F)ccc(C)c2C)ncc(Cl)c1C(C)OC(C)=O (some centres undefined)
2,80,Cc1ccc(F)c([C@@H](C)[C@H](NS(=O)(=O)c2cc(C(C)(C)O)c(F)cc2C(N)=O)c2n[nH]c(=O)o2)c1C
3,80,COc1c(S(=O)(=O)N[C@H](c2n[nH]c(=O)o2)[C@H](C)c2c(F)ccc3ccccc23)ccc(Cl)c1C(C)O (some centres undefined)
4,450,Cc1ccc(F)c([C@@H](C)[C@H](NS(=O)(=O)c2ccc(Cl)s2)c2n[nH]c(=O)o2)c1C
5,500,Cc1ccc(F)c([C@@H](C)[C@H](NS(=O)(=O)c2ncc(Cl)cc2C(=O)O)c2n[nH]c(=O)o2)c1C
6,60,Cc1ccc(F)c([C@@H](C)[C@H](NS(=O)(=O)c2cc(C(C)(C)O)ccc2C(N)=O)c2n[nH]c(=O)o2)c1C
7,960,Cc1ccc(F)c([C@@H](C)[C@H](NS(=O)(=O)c2cc(F)c(Cl)cc2C(=O)O)c2n[nH]c(=O)o2)c1C
8,470,Cc1ccc(S(=O)(=O)N[C@H](c2n[nH]c(=O)o2)[C@H](C)c2c(F)ccc(C)c2C)cc1S(=O)(=O)N1CCCCC1
9,220,Cc1ccc(F)c([C@@H](C)[C@H](NS(=O)(=O)c2ccc3c(c2)N(C)CCC3)c2n[nH]c(=O)o2)c1C
10,180,Cc1ccc(F)c([C@@H](C)[C@H](NS(=O)(=O)c2ccc3c(c2)C(C)(O)CCO3)c2n[nH]c(=O)o2)c1C (some centres undefined)
11,100,COc1nc(Cl)ccc1S(=O)(=O)N[C@H](c1n[nH]c(=O)o1)[C@H](C)c1c(F)ccc(C)c1C
12,270,Cc1ccc(F)c([C@@H](C)[C@H](NS(=O)(=O)c2ccc(Cl)cc2C(=O)NCCO)c2n[nH]c(=O)o2)c1C
13,100,Cc1c(Cl)ccc(F)c1[C@@H](C)[C@H](NS(=O)(=O)c1ncc(Cl)cc1C(N)=O)c1n[nH]c(=O)o1
14,590,COc1cc(Br)ccc1S(=O)(=O)N[C@H](c1n[nH]c(=O)o1)[C@H](C)c1cccc2c1CCC2
15,80,Cc1ccc(F)c([C@@H](C)[C@H](NS(=O)(=O)c2ccc(Cl)c(C(=O)N3CCC4(CC3)COC4)n2)c2n[nH]c(=O)o2)c1C
16,20,Cc1ccc(F)c([C@@H](C)[C@H](NS(=O)(=O)c2ncc(Br)cc2C(N)=O)c2n[nH]c(=O)o2)c1C
17,230,Cc1ccc(F)c([C@@H](C)[C@H](NS(=O)(=O)c2c(F)cc(F)c3c2OCCC3O)c2n[nH]c(=O)o2)c1C (some centres undefined)
18,110,CC(=O)OC1(C(F)(F)F)CCOc2c(S(=O)(=O)N[C@H](c3n[nH]c(=O)o3)[C@H](C)c3c(F)ccc(C)c3C)ccc(Cl)c21 (some centres undefined)
19,180,Cc1ccc(F)c([C@@H](C)[C@H](NS(=O)(=O)c2ccc(Cl)cc2C(=O)O)c2n[nH]c(=O)o2)c1C
20,280,Cc1ccc(F)c([C@@H](C)[C@H](NS(=O)(=O)c2ccc3c(c2)C(=O)CCO3)c2n[nH]c(=O)o2)c1C
21,60,CNC(=O)c1nc(S(=O)(=O)N[C@H](c2n[nH]c(=O)o2)[C@H](C)c2c(F)ccc(C)c2C)ccc1Cl
22,170,COc1c(S(=O)(=O)N[C@H](c2n[nH]c(=O)o2)[C@H](C)c2c(F)ccc(C)c2C)ccc(Cl)c1C(C)OC(C)=O (some centres undefined)
23,190,Cc1ccc(F)c([C@@H](C)[C@H](NS(=O)(=O)c2ccc(F)c(S(C)(=O)=O)c2)c2n[nH]c(=O)o2)c1C
24,260,Cc1ccc(F)c([C@@H](C)[C@H](NS(=O)(=O)c2ccc(Cl)cc2OC(F)F)c2n[nH]c(=O)o2)c1C
